{"source": "patent US20060069132A1", "about": "“Azolecarboxamide herbicides” (priority 2004, published 2006)", "key": {"kochia": {"test_system": "kochia", "test": "Test C pre-/postemergence herbicide test", "type": "in vivo, Kochia scoparia", "details": "preemergence; for Plant response rating (0 = no effect, 100 = complete control), Kochia: 62 g ai/ha", "outline": "(§1)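 Pre- and postemergence application, solvent/surfactant formulation; post at 1- to 4-leaf stage (2–18 cm). Greenhouse 12–14 d. Visual rating vs controls, 0 = no effect, 100 = complete control.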"}, "yellow nutsedge": {"test_system": "yellow nutsedge", "test": "Test C pre-/postemergence herbicide test", "type": "in vivo, Cyperus esculentus", "details": "preemergence", "outline": "as §1"}, "large crabgrass": {"test_system": "large crabgrass", "test": "Test C pre-/postemergence herbicide test", "type": "in vivo, Digitaria sanguinalis", "details": "preemergence; for Plant response rating (0 = no effect, 100 = complete control), Crabgrass, Large: 62 g ai/ha", "outline": "as §1"}, "giant foxtail [1]": {"test_system": "giant foxtail", "test": "Test C pre-/postemergence herbicide test", "type": "in vivo, Setaria faberi", "details": "preemergence; for Plant response rating (0 = no effect, 100 = complete control), Foxtail, Giant: 62 g ai/ha", "outline": "as §1"}, "common ragweed": {"test_system": "common ragweed", "test": "Test C pre-/postemergence herbicide test", "type": "in vivo, Ambrosia elatior", "set-up": "key to Plant response rating, Ragweed: 0 = no effect, 100 = complete control", "details": "preemergence; for Plant response rating (0 = no effect, 100 = complete control), Ragweed: 62 g ai/ha", "outline": "as §1"}, "pigweed": {"test_system": "pigweed", "test": "Test C pre-/postemergence herbicide test", "type": "in vivo, Amaranthus retroflexus", "details": "preemergence", "outline": "as §1"}, "soybean": {"test_system": "soybean", "test": "Test C pre-/postemergence herbicide test", "type": "in vivo, Glycine max", "details": "preemergence; for Plant response rating (0 = no effect, 100 = complete control), Soybean: 62 g ai/ha", "outline": "as §1"}, "bermudagrass": {"test_system": "bermudagrass", "test": "Test C pre-/postemergence herbicide test", "type": "in vivo, Cynodon dactylon", "details": "for Plant response rating (0 = no effect, 100 = complete control), Bermudagrass: 62 g ai/ha", "outline": "as §1"}, "giant foxtail [2]": {"test_system": "giant foxtail", "test": "Test A pre-/postemergence herbicide test", "type": "in vivo, Setaria faberi", "outline": "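Visual injury rating on a 0–100 scale (0 no effect, 100 complete control) versus untreated controls, about ten days after treatment in greenhouse. Pre: directed soil spray onto seeded sandy loam. Post: spray to runoff on plants 2–10 cm tall at one- to two-leaf stage.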"}, "morningglory": {"test_system": "morningglory", "test": "Test C pre-/postemergence herbicide test", "type": "in vivo, Ipomoea coccinea", "set-up": "key to Plant response rating, Morningglory: 0 = no effect, 100 = complete control", "details": "preemergence; for Plant response rating (0 = no effect, 100 = complete control), Morningglory: 62 g ai/ha", "outline": "as §1"}, "[3]": {"details": "125 g ai/ha, scale 0 (no effect) to 100 (complete control), visual, 12 to 14 days"}, "[4]": {"details": "250 g ai/ha, scale 0 to 100 (0 no effect, 100 complete control), visual, 12 to 14 days"}, "[5]": {"details": "125 g ai/ha, scale 0 (no effect) to 100 (complete control), visual, 12 to 14 days, preemergence"}, "[6]": {"details": "Postemergence, 500 g ai/ha, 0 to 100 scale, 0 no effect, 100 complete control"}, "[7]": {"details": "Postemergence, 2000 g ai/ha, 0 to 100 scale, 0 no effect, 100 complete control"}, "[8]": {"details": "Preemergence, 500 g ai/ha, visual rating, 0 to 100 scale (0 no effect, 100 complete control)"}}}
{"compound": "CCOC(=O)c1cc(NC(=O)c2cc(C(C)(C)C)nn2CC)ccc1OCC", "note": "[Compound 95]", "values": [{"measurement": "Plant response rating, Kochia", "setting": "kochia; 31 g ai/ha, scale 0 to 100", "result": 80}, {"measurement": "Plant response rating (0 = no effect, 100 = complete control), Kochia", "setting": "kochia", "result": 100}, {"measurement": "Plant response rating, Kochia", "setting": "kochia; [3]", "result": 100}, {"measurement": "Plant response rating, Nutsedge, Yellow", "setting": "yellow nutsedge; 31 g ai/ha, scale 0 to 100", "result": 0}, {"measurement": "Plant response rating (0 = no effect, 100 = complete control), Nutsedge, Yellow", "setting": "yellow nutsedge; 62 g ai/ha", "result": 0}, {"measurement": "Plant response rating, Nutsedge, Yellow", "setting": "yellow nutsedge; [3]", "result": 0}, {"measurement": "Plant response rating, Crabgrass, Large", "setting": "large crabgrass; 31 g ai/ha, scale 0 to 100", "result": 10}, {"measurement": "Plant response rating (0 = no effect, 100 = complete control), Crabgrass, Large", "setting": "large crabgrass", "result": 80}, {"measurement": "Plant response rating, Crabgrass, Large", "setting": "large crabgrass; [3]", "result": 100}, {"measurement": "Plant response rating, Crabgrass, Large", "setting": "large crabgrass; [4]", "result": 100}, {"measurement": "Plant response rating, Foxtail, Giant", "setting": "giant foxtail [1]; 31 g ai/ha, scale 0 to 100", "result": 0}, {"measurement": "Plant response rating (0 = no effect, 100 = complete control), Foxtail, Giant", "setting": "giant foxtail [1]", "result": 60}, {"measurement": "Plant response rating, Foxtail, Giant", "setting": "giant foxtail [1]; [3]", "result": 100}, {"measurement": "Plant response rating, Foxtail, Giant", "setting": "giant foxtail [1]; [4]", "result": 100}, {"measurement": "Plant response rating, Ragweed", "setting": "common ragweed; 31 g ai/ha, scale 0 to 100", "result": 10}, {"measurement": "Plant response rating (0 = no effect, 100 = complete control), Ragweed", "setting": "common ragweed", "result": 50}, {"measurement": "Plant response rating, Ragweed", "setting": "common ragweed; [3]", "result": 80}, {"measurement": "Plant response rating, Pigweed", "setting": "pigweed; 31 g ai/ha, scale 0 to 100", "result": 100}, {"measurement": "Plant response rating (0 = no effect, 100 = complete control), Pigweed", "setting": "pigweed; 62 g ai/ha", "result": 100}, {"measurement": "Plant response rating, Pigweed", "setting": "pigweed; [3]", "result": 100}, {"measurement": "Plant response rating, Soybean", "setting": "soybean; 31 g ai/ha, scale 0 to 100", "result": 0}, {"measurement": "Plant response rating (0 = no effect, 100 = complete control), Soybean", "setting": "soybean", "result": 0}, {"measurement": "Plant response rating, Soybean", "setting": "soybean; [3]", "result": 0}, {"measurement": "Plant response rating, Bermudagrass", "setting": "bermudagrass; 31 g ai/ha, preemergence, scale 0 to 100", "result": 10}, {"measurement": "Plant response rating (0 = no effect, 100 = complete control), Bermudagrass", "setting": "bermudagrass; preemergence", "result": 70}, {"measurement": "Plant response rating, Bermudagrass", "setting": "bermudagrass; [5]", "result": 100}, {"measurement": "Plant response rating, Bermudagrass", "setting": "bermudagrass; 250 g ai/ha, scale 0 to 100 (0 no effect, 100 complete control), visual, 12 to 14 days, preemergence", "result": 100}, {"measurement": "Foxtail, Giant plant response rating", "setting": "giant foxtail [2]; [6]", "result": 20}, {"measurement": "Plant response rating, Foxtail, Giant", "setting": "giant foxtail [2]; [7]", "result": 50}, {"measurement": "Foxtail, Giant plant response rating", "setting": "giant foxtail [2]; [8]", "result": 70}, {"measurement": "Foxtail, Giant plant response rating", "setting": "giant foxtail [2]; Preemergence, 2000 g ai/ha, 0 to 100 scale, 0 no effect, 100 complete control", "result": 90}, {"measurement": "Plant response rating, Morningglory", "setting": "morningglory; 31 g ai/ha, scale 0 to 100", "result": 0}, {"measurement": "Plant response rating (0 = no effect, 100 = complete control), Morningglory", "setting": "morningglory", "result": 5}, {"measurement": "Plant response rating, Morningglory", "setting": "morningglory; [3]", "result": 10}]}
{"compound": "CC(=O)c1cccc(NC(=O)c2cc(C(C)(C)C)nn2CCF)c1", "note": "[Compound 128]", "values": [{"measurement": "Plant response rating (0 = no effect, 100 = complete control), Kochia", "setting": "kochia", "result": 0}, {"measurement": "Plant response rating, Kochia", "setting": "kochia; [3]", "result": 0}, {"measurement": "Plant response rating, Nutsedge, Yellow", "setting": "yellow nutsedge; 16 g ai/ha, scale 0 to 100, last section of Table C", "result": 10}, {"measurement": "Plant response rating, Nutsedge, Yellow", "setting": "yellow nutsedge; 31 g ai/ha, scale 0 to 100, last section of Table C", "result": 70}, {"measurement": "Plant response rating, Nutsedge, Yellow", "setting": "yellow nutsedge; [3]", "result": 70}, {"measurement": "Plant response rating (0 = no effect, 100 = complete control), Crabgrass, Large", "setting": "large crabgrass", "result": 100}, {"measurement": "Plant response rating, Crabgrass, Large", "setting": "large crabgrass; [3]", "result": 100}, {"measurement": "Plant response rating (0 = no effect, 100 = complete control), Foxtail, Giant", "setting": "giant foxtail [1]", "result": 10}, {"measurement": "Plant response rating, Foxtail, Giant", "setting": "giant foxtail [1]; [3]", "result": 10}, {"measurement": "Plant response rating (0 = no effect, 100 = complete control), Ragweed", "setting": "common ragweed", "result": 10}, {"measurement": "Plant response rating, Ragweed", "setting": "common ragweed; [3]", "result": 20}, {"measurement": "Plant response rating, Pigweed", "setting": "pigweed; [3]", "result": 60}, {"measurement": "Plant response rating (0 = no effect, 100 = complete control), Soybean", "setting": "soybean", "result": 20}, {"measurement": "Plant response rating, Soybean", "setting": "soybean; [3]", "result": 20}, {"measurement": "Plant response rating, Bermudagrass", "setting": "bermudagrass; 16 g ai/ha, scale 0 to 100, 0 no effect, 100 complete control, last section of Table C (species set of preemergence test)", "result": 30}, {"measurement": "Plant response rating, Bermudagrass", "setting": "bermudagrass; 31 g ai/ha, scale 0 to 100, 0 no effect, 100 complete control, last section of Table C (species set of preemergence test)", "result": 90}, {"measurement": "Plant response rating (0 = no effect, 100 = complete control), Bermudagrass", "setting": "bermudagrass; preemergence", "result": 100}, {"measurement": "Plant response rating, Bermudagrass", "setting": "bermudagrass; [5]", "result": 100}, {"measurement": "Foxtail, Giant plant response rating", "setting": "giant foxtail [2]; [6]", "result": 45}, {"measurement": "Plant response rating, Foxtail, Giant", "setting": "giant foxtail [2]; [7]", "result": 60}, {"measurement": "Foxtail, Giant plant response rating", "setting": "giant foxtail [2]; [8]", "result": 15}, {"measurement": "Foxtail, Giant plant response rating", "setting": "giant foxtail [2]; Preemergence, 2000 g ai/ha, visual rating, 0 to 100 scale (0 no effect, 100 complete control)", "result": 65}, {"measurement": "Plant response rating (0 = no effect, 100 = complete control), Morningglory", "setting": "morningglory", "result": 30}, {"measurement": "Plant response rating, Morningglory", "setting": "morningglory; [3]", "result": 30}]}
